Patent US20220184220A1, “XYLOGLUCAN-CONTAINING PRODRUGS AND METHODS OF MANUFACTURE AND USE THEREOF” (priority 2019, published 2022)
Entries after “also recorded” stand apart in the source; their conditions may differ.

Tests used:
[1] = biological target: Bacteroides ovatus GH5 endo-xyloglucanase (Bacteroides ovatus, UniProt A7LXT7); experiment: Hydrolysis of glyco-caged prodrugs by BoGH5A, copper-bicinchoninic acid (BCA) reducing-sugar assay; type: biochemical; settings: sodium citrate buffer, pH 6.5
Chain of Bacteroides ovatus GH5 endo-xyloglucanase (A7LXT7 33-502): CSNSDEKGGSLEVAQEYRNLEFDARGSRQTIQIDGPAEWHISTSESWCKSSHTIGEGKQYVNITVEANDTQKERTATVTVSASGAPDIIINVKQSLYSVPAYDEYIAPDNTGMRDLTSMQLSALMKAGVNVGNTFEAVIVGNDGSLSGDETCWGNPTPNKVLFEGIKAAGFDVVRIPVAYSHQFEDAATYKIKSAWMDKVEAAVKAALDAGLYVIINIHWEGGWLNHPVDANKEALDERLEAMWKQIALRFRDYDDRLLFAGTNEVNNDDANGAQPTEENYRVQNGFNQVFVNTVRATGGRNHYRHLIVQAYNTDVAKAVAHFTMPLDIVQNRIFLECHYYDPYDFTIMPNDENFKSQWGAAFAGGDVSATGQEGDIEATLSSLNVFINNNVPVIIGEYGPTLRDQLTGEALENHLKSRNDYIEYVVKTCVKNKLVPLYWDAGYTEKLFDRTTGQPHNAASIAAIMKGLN
Excerpt: DOI:10.1007/978-1-4939-6899-2 1.

[2] = test system: IL-1β, IL-6, IL-22, TNF-α; experiment: Tissue cytokine detection by ELISA in cecal and colonic homogenates (Example 3); type: in vivo, mice; settings: for decreasing pro-inflammatory cytokines (IL-1β and TNF-α) and increasing IL-22 in intestinal tissues: compared with uncaged drugs
Procedure: Cecal and colonic homogenate for each mouse was prepared using the tissues suspended in an immunoprecipitation buffer at a ratio of 1:5 (wt/vol, adapted from Burgos-Ramos E. et al. 2012. “Adipose tissue promotes a serum cytokine profile related to lower insulin sensitivity after chronic central leptin infusion”. PLoS One Vol 7(10): e46893) with the addition of 1% Protease Inhibitor Cocktail (Sigma Aldrich). Frozen tissue sections were immediately homogenized using a Tissue-Tearor® model 398 homogenizer (Biospec Products) and centrifuged (14 000×g for 30 min at 4° C.). Supernatants were collected and used immediately for cytokine profiling. Cecal and colonic cytokine concentrations were measured for each treatment group by enzyme-linked immunosorbent assay (ELISA). Cytokines included in the analysis were interleukin-1 beta (IL-1β); IL-6; IL-10; IL-22; and tumour necrosis factor alpha (TNF-α). All cytokines were quantified using mouse DuoSet ELISA Development kits according to the manufacturer's protocols (R&D Systems). ELISAs were performed using 96-well high-binding half area microplates (Greiner Bio-One), and the optical density of the reactions were determined at wavelength of 450 nm on a Synergy HT™ multi-detection microplate reader (BioTek Instruments Inc.) with Gen5™ analysis software (BioTek Instruments Inc.).

[3] = test system: acute self-limiting colitis in mice; experiment: Histological scoring of inflammation, C. rodentium colitis in germ-free mice colonized with B. ovatus (Example 3); type: in vivo; settings: for Crypt Height / Epithelia Hyperplasia / Epithelial Injury / Fibrosis / Globlet cell / Inflamm / Mitotic Act.: gavage 3 days, prednisolone forms 1 mg/kg/day, dexamethasone forms 0.6 mg/kg/day; for Crypt Height / Epithelia Hyperplasia / Epithelial Injury / Fibrosis / Globlet cell / Inflamm / Mitotic Act. / Total Score: n=2; for Total Score: sum of each scoring category; for acute inflammation in the proximal and distal colon, histopathologically / efficacy compared with the uncaged drug: gnotobiotic mice colonized by B. ovatus; for efficacy compared with the uncaged drug: Example 3 conclusions
[4] = test system: acute self-limiting colitis in mice; experiment: Gross visual observations of the murine abdomen (Example 3); type: in vivo; settings: necropsy after 3 days of steroid gavage
Excerpt: Under isoflurane anesthesia, mice were terminally bled by cardiac puncture and then humanely euthanized by cervical dislocation. All collected blood was separated into serum that was dedicated for steroid detection and optimization of steroid detection procedures. Following euthanasia, a midline laparotomy was made and gross observations of the abdominal regions were photo-documented. Approximately 1 cm sections of the cecum, and the most proximal and distal portions of the colon were divided for histological examination. Cecal and colonic tissues were flash frozen in liquid nitrogen for future immunological protein quantification. Digesta extracted from the colon was stored at −80° C. for future steroid detection, and fresh feces from the cages were used to enumerate Bacteroides ovatus and Citrobacter rodentium by microbiological techniques on the same day as the necropsy.

[5] = test system: acute self-limiting colitis in mice; experiment: Histological scoring of inflammation, C. rodentium colitis in mice with normal enteric microbiota (Example 7); type: in vivo; settings: for histological score, distal colon: CR+/BO+ mice, prednisolone forms 1 mg/kg, dexamethasone forms 1.5 mg/kg (equivalent), one day following steroid treatment; for efficacy compared with the uncaged drug, histologically: Example 7 conclusions; for colitis in the colon, histopathologically: colitis incited by Citrobacter rodentium, mice colonized by Bacteroides ovatus
Procedure: (§1) Approval to conduct this project was obtained from the AAFC LeRDC Animal Care Committee (Animal Use Protocol 1911). […] The methods employed were essentially the same as those described in Example 3, except that the Citrobacter rodentium (CR) was administered to incite acute self-limiting colitis in mice prior to colonization with Bacteroides ovatus (BO). […] FIG. 20 provides a schematic illustrating the study design and timelines.
(§2) As in the study described in Example 3, there were gross histopathological differences in the distal colon tissue obtained from mice in the different treatment groups. Histological scoring of inflammation was performed by a board-certified pathologist blinded to treatment. […] Following CR infection, with no treatment, neutrophil infiltration was evident and the histological score was 10. […] Evidence of enhanced amelioration of protein markers of inflammation were also observed. […] IL-12p70 is a pro-inflammatory cytokine involved in cell-mediated immunity. For example, it is known as a T cell-stimulating factor, which can stimulate the growth and function of T cells. Moreover, it stimulates the production of interferon-gamma (IFN-γ) and tumor necrosis factor-alpha (TNF-α) from T cells and natural killer (NK) cells, and reduces IL-4 mediated suppression of IFN-γ.

[6] = test system: interleukin-12p70 (IL-12p70); experiment: Protein markers of inflammation in colonic tissue (Example 7); type: in vivo; settings: infected female mice; compared to uncaged PRED or DEXA
Procedure: as §1, §2

[7] = cecal tissue homogenates, compared to the free steroids, n=2

SMILES | hydrolysis of the prodrug (release of the active drug) [1] | Crypt Height ([3]; cecal tissue) | Epithelia Hyperplasia ([3]; cecal tissue) | Epithelial Injury ([3]; cecal tissue) | Fibrosis ([3]; cecal tissue) | Globlet cell ([3]; cecal tissue) | Inflamm ([3]; cecal tissue) | Mitotic Act. ([3]; cecal tissue) | Total Score ([3]; cecal tissue) | Crypt Height ([3]; distal colon) | Epithelia Hyperplasia ([3]; distal colon) | Epithelial Injury ([3]; distal colon) | Fibrosis ([3]; distal colon) | Globlet cell ([3]; distal colon) | Inflamm ([3]; distal colon) | Mitotic Act. ([3]; distal colon) | Total Score ([3]; distal colon) | Crypt Height ([3]; proximal colon) | Epithelia Hyperplasia ([3]; proximal colon) | Epithelial Injury ([3]; proximal colon) | also measured
COC(=O)c1cc(N)ccc1O[C@@H]1OC(CO)[C@@H](O[C@@H]2OC(CO[C@H]3OC[C@@H](O)C(O)C3O)[C@@H](O[C@@H]3OC(CO[C@H]4OC[C@@H](O)C(O)C4O)[C@@H](O[C@@H]4OC(CO[C@H]5OC[C@@H](O)C(O)C5O)[C@@H](O)C(O)C4O)C(O)C3O)C(O)C2O)C(O)C1O (stereo partly drawn) [XXXG-5ASAME, XXXG-β-O-mesalazineME] | demonstrated | – | – | – | – | – | – | – | – | – | – | – | – | – | – | – | – | – | – | – | –
C[C@@H]1C[C@H]2[C@@H]3CCC4=CC(=O)C=C[C@]4(C)[C@@]3(F)[C@@H](O)C[C@]2(C)[C@@]1(O)C(=O)CO[C@@H]1OC(CO)[C@@H](O[C@@H]2OC(CO[C@H]3OC[C@@H](O)C(O)C3O)[C@@H](O[C@@H]3OC(CO[C@H]4OC[C@@H](O)C(O)C4O)[C@@H](O[C@@H]4OC(CO[C@H]5OC[C@@H](O)C(O)C5O)[C@@H](O)C(O)C4O)C(O)C3O)C(O)C2O)C(O)C1O (stereo partly drawn) [XXXG-DEXA, XXXG-β-O-dexamethasone] | demonstrated | 1 | 1 | 1 | 1.5 | 0.5 | 2 | 1.5 | 8.5 | 1.5 | 1.5 | 1 | 0 | 0 | 1 | 1 | 6 | 2 | 1.5 | 2 | IL-1β concentration in cecal tissue [2, 7]: decreased; TNF-α concentration in cecal tissue [2, 7]: decreased; decrease of IL-6 concentration in cecal tissue [2, 7]: more effective than XXXG-PRED; decreasing pro-inflammatory cytokines (IL-1β and TNF-α) and increasing IL-22 in intestinal tissues [2]: more effective than the uncaged drugs; amelioration of colitis in the cecum and proximal colon, caged drugs compared ([3]; colitis incited by Citrobacter rodentium): more effective than XXXG-PRED; caged drugs compared in the distal colon ([3]; distal colon): equal scores; acute inflammation in the proximal and distal colon, histopathologically [3]: ameliorate acute inflammation; efficacy compared with the uncaged drug [3]: greater efficacy than uncaged dexamethasone; injury and inflammation intensities, distal colon ([3]; histologic examination): lessened the injury and inflammation intensities; injury and inflammation intensity, ceca and proximal colon tissues ([3]; histologic examination): less injury and inflammation intensity than the other treatments; Fibrosis ([3]; proximal colon): 0; Globlet cell ([3]; proximal colon): 0; Inflamm ([3]; proximal colon): 1; Mitotic Act. ([3]; proximal colon): 1.5; Total Score ([3]; proximal colon): 8; cecal and colonic thickening (gross observation) [4]: less cecal and colonic thickening than uncaged dexamethasone; histological score, distal colon [5]: 2; efficacy compared with the uncaged drug, histologically [5]: greater efficacy than uncaged dexamethasone histologically; colitis in the colon, histopathologically [5]: ameliorate colitis; quantities of interleukin-12p70 (IL-12p70) protein in colonic tissue [6]: significantly lower
C[C@]12C=CC(=O)C=C1CC[C@@H]1[C@@H]2[C@@H](O)C[C@@]2(C)[C@H]1CC[C@]2(O)C(=O)CO[C@@H]1OC(CO)[C@@H](O[C@@H]2OC(CO[C@H]3OC[C@@H](O)C(O)C3O)[C@@H](O[C@@H]3OC(CO[C@H]4OC[C@@H](O)C(O)C4O)[C@@H](O[C@@H]4OC(CO[C@H]5OC[C@@H](O)C(O)C5O)[C@@H](O)C(O)C4O)C(O)C3O)C(O)C2O)C(O)C1O (stereo partly drawn) [XXXG-PRED, XXXG-β-O-prednisolone] | demonstrated | 2 | 2 | 1.5 | 0.5 | 0 | 2.5 | 1.5 | 10 | 1.5 | 1.5 | 1 | 0 | 0.5 | 1 | 1 | 6.5 | 2 | 3 | 2.5 | IL-1β concentration in cecal tissue [2, 7]: decreased; TNF-α concentration in cecal tissue [2, 7]: decreased; IL-22 concentration in cecal tissue ([2]; cecal tissue homogenates, n=2): increased; decreasing pro-inflammatory cytokines (IL-1β and TNF-α) and increasing IL-22 in intestinal tissues [2]: more effective than the uncaged drugs; caged drugs compared in the distal colon ([3]; distal colon): equal scores; acute inflammation in the proximal and distal colon, histopathologically [3]: ameliorate acute inflammation; efficacy compared with the uncaged drug [3]: greater efficacy than uncaged prednisolone; injury and inflammation intensities, distal colon ([3]; histologic examination): lessened the injury and inflammation intensities; Fibrosis ([3]; proximal colon): 0; Globlet cell ([3]; proximal colon): 0.5; Inflamm ([3]; proximal colon): 2; Mitotic Act. ([3]; proximal colon): 1.5; Total Score ([3]; proximal colon): 11.5; blood present in ceca (gross observation) [4]: more blood present in ceca than dexamethasone treatment; also recorded: more blood in cecal area; histological score, distal colon [5]: 4; efficacy compared with the uncaged drug, histologically [5]: greater efficacy than uncaged prednisolone histologically; colitis in the colon, histopathologically [5]: ameliorate colitis; quantities of interleukin-12p70 (IL-12p70) protein in colonic tissue [6]: significantly lower
C[C@@H]1C[C@H]2[C@@H]3CCC4=CC(=O)C=C[C@]4(C)[C@@]3(F)[C@@H](O)C[C@]2(C)[C@@]1(O)C(=O)CO [dexamethasone, reference compound] | – | 1 | 1 | 0.5 | 0 | 0 | 2 | 1.5 | 6 | 2 | 1.5 | 1 | 1 | 1.5 | 1.5 | 1 | 9.5 | 3 | 3 | 2 | Fibrosis ([3]; proximal colon): 0; Globlet cell ([3]; proximal colon): 0; Inflamm ([3]; proximal colon): 1.5; Mitotic Act. ([3]; proximal colon): 1.5; Total Score ([3]; proximal colon): 11; histological score, distal colon [5]: 17
